Reference: PMC9230797, “Integration of a Physiologically Based Pharmacokinetic and Pharmacodynamic Model for Tegoprazan and Its Metabolite: Application for Predicting Food Effect and Intragastric pH Alterations” (Pharmaceutics, 2022)
“And” between values parts separate entries of the source, which are not always exact repeats. Identical values can stand only once.

Tests used:
[1] = set-up: method as in PMID 33131095; conditions: 100 mg repeatedly; 10 healthy Chinese subjects; cited from earlier work
CYP2E1 = target: T1, CYP2E1 (Homo sapiens, UniProt P05181); test: Intrinsic clearance using recombinant CYPs: CYP2E1; assay type: in vitro ADME
T1 construct: purchased Corning Life Sciences (Woburn, MA, USA)
Description: The elimination profiles of tegoprazan and M1 were assessed using rCYPs. All the assay procedures were performed according to the manufacturer’s instructions. Master mix (1.399 mL), containing the NADPH-generating system, 3.3 mM of glucose 6-phosphate, PBS buffer, deionized water, and each rCYP (25 pmol/μL of CYP2C8, 2C19, and 2E1 and 50 pmol/μL of CYP3A4, 2C9, and 2D6), was added to a microtube and pre-incubated at 37 °C for 5 min. Next, 1 μM tegoprazan and M1 were added and incubated at 37 °C for 0, 5, 10, 20, 30, 45, and 60 min. A total of 100 μL of the sample, incubated for predefined duration, was transferred to a fresh e-tube. Next, 200 μL of acetonitrile containing tegoprazan-d6 (0.5 μM) was added, vortexed for 5 min, and centrifuged at 16,200× g and 4 °C for 10 min. The concentrations of the remaining tegoprazan and M1 were determined by LC–MS/MS. All experiments were performed in duplicate. CLint,rCYP levels were assessed using the results of the disappearance test. […] The CLint resulting from rCYPs was calculated using Equation (3):(3) CLint,rCYP(μL/min/pmol CYP)=0.693/t1/2×1400/concentration of CYP
Caco-2 and rCYP samples were quantified using LC-MS/MS (UPLC® I-class coupled with TQ-MS (Waters, Milford, MA, USA). The mobile phase comprised (a) 0.1% formic acid and (b) acetonitrile containing 0.1% formic acid. Gradient elution at a flow rate of 0.3 mL/min was applied. Tegoprazan, M1, and the internal standard (tegoprazan-d6) were optimized in electrospray ionization positive mode. Acetonitrile with 0.1 μM of tegoprazan-d6 was added to the collected Caco-2 or rCYP samples. Then, processed samples were centrifuged at 13,000× g for 20 min. After centrifugation, 100 μL of supernatant was transferred to an LC-MS vial and analyzed using LC-MS/MS. […] The stability of tegoprazan was evaluated, and it satisfied the acceptance criteria (coefficient of variances was within 15%) under variable conditions including reinjection, processed sample stability (PSS), and short-term stability for the stock and sample.

[2] = PBPK model prediction of plasma PK (SimCYP simulator); set-up: species or system human
From the text: The tegoprazan and M1 PBPK models were developed using SimCYP® simulator, version 20 (Certara, Princeton, NJ, USA). Compound libraries were incorporated into an in vitro dataset, including the microsomal clearance of tegoprazan and M1. Observed PK parameters were obtained from the aforementioned clinical studies (Table 1 and Table 2).
The absorption of tegoprazan was applied to the advanced dissolution, absorption, and metabolism (ADAM) model, and the diffusion layer model (DLM) built into SimCYP® was applied to the considered formulation and pH-dependent solubility of tegoprazan. The permeability of tegoprazan was determined by a Caco-2 permeability assay and optimized by parameter estimation. Caco-2 permeability was optimized such that the predicted concentration–time profiles were fitted to clinical study data. The metabolite was generated by the metabolism of the parent drug; therefore, absorption was not considered.
The tissue distribution in the PBPK model was predicted by the distribution model (e.g., Rodger and Rowland method, Poulin and Theil method) and the tissue:plasma partition coefficient (Kp) scalar for specific organ or global values. Predicted systemic distribution was expressed as the volume of distribution in a steady state (Vss). The Vd values of the clinical study were applied to the initial model of tegoprazan, and parameter estimation was used to determine the optimized Kp scalar fitted to the observed data. The Rodger and Rowland method (method 2) was applied to consider the weak base property and distribution of the neutral and ionic forms. The minimal PBPK model was applied to the M1 distribution module to reduce the complexity. The volume of a single adjusting compartment (Vsac), non-physiological compartment, input rate to SAC (kin), and elimination rate from SAC (kout) were estimated using the parameter estimation module within SimCYP®.
The elimination profiles of tegoprazan and M1 were obtained from in vitro, in vivo, and in silico predictions. Optimized in-house intrinsic clearance for CYPs (CLint,rCYPs), and human liver microsomal and cytosolic (HLM and HLC) clearance were applied to the elimination module of the tegoprazan model. Observed or estimated renal and biliary clearance were applied to the tegoprazan and M1 models. Whole-organ metabolic clearance, using the optimized value for the in vitro assay results, was applied to the M1 model.
The virtual dosing regimen was set to a single oral dose of 100 mg tegoprazan, to match that of the observed data. The simulation conditions were set for 100 virtual subjects who participated in 10 virtual clinical studies (1000 volunteers). The age range was 20 to 40 years, and the male-to-female ratio was 1:1. The predicted and observed PK parameters were compared to evaluate the model prediction results. […] If the predicted vs. observed ratio and its 95% CI were within the 30% range (0.7–1.3), the model was considered to fit well.
Postprandial PK profiles were predicted using an established model. Concentration–time profiles were obtained following a single oral dose (50 mg) of tegoprazan in the fasting state or 30 min after a high-fat diet. The predicted AUClast, Cmax, and Tmax values were compared with those of a previous clinical study.

[3] = set-up: method as in PMID 32055586; conditions: Observed (n = 12); single 100 mg tegoprazan; mean (5th–95th percentile); cited from earlier work
[4] = set-up: method as in PMID 31437865; conditions: cited from earlier work
[5] = At 30 min after a high-fat meal, single 50 mg
[6] = single 100 mg tegoprazan, (95% confidence interval)

T1 sequence (P05181 whole entry): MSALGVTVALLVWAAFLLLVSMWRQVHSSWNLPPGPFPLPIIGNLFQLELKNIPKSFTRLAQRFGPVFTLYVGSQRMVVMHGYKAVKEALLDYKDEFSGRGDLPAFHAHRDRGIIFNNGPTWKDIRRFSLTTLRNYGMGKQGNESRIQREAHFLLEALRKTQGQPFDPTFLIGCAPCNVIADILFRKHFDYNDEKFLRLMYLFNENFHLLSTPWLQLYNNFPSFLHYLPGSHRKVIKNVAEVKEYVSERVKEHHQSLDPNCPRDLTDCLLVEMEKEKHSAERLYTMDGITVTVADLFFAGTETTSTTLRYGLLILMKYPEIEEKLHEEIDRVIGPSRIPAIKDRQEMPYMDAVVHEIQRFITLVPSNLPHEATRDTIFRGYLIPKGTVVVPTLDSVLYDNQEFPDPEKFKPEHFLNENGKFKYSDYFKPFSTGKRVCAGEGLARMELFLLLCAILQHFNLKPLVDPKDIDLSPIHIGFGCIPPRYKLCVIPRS

## Cc1nc2cc(C(=O)N(C)C)cc(O[C@H]3CCOc4cc(F)cc(F)c43)c2[nH]1 [tegoprazan]
[1]
  AUC and CL on Day 7 compared with Day 1: did not show a significant difference
  Vd/F on Day 7 compared with Day 1: increased significantly
CYP2E1; 1 μM, experimental data
  CLint, CYP2E1: 0.03 µL/min/pmol and 0.030 µL/min/pmol
CYP2E1; human, recombinant CYP2E1, rCYP2E1
  half-life at 1 μM: 11.6 h
CYP2E1; rCYP2E1, 1 μM
  Slope (disappearance): -0.001
[2]; 100 mg once daily
  increase of predicted Cmax at Day 7 compared with Day 1: approximately 1.84%
[2]; [5]
  AUC0–24 h Ratio (Predicted/Observed): 0.88 (0.43–1.32)
  Cmax Ratio (Predicted/Observed): 0.96 (0.32–1.59)
[2]; Fast, single 50 mg
  AUC0–24 h Ratio (Predicted/Observed): 0.89 (0.45–1.33)
  Cmax Ratio (Predicted/Observed): 0.85 (0.62–1.09)
[2]; single 50 mg
  decrease of predicted mean Cmax after a high-fat diet vs fasted state: 31.3%
[2]; [6]
  AUC0–24 h Ratio (Predicted/Observed): 0.90 (0.85–0.96)
  CL Ratio (Predicted/Observed): 1.25 (1.17–1.34)
  Cmax Ratio (Predicted/Observed): 0.88 (0.80–1.00)
[3]
  AUC0–24 h: 5611 (3783–7489) ng × h/mL
  CL: 17.8 (13.1–24.4) L/h
  Cmax: 1425 (908–2184) ng/mL
[4]; 100 mg once daily for 7 days
  observed Cmax, Day 7: 845.2 ± 40.7 ng/mL
[4]; 100 mg once daily
  observed Cmax, Day 1: 1413.3 ± 24.7 ng/mL
